Activity data for 22 molecules are collected here from ChEMBL document CHEMBL3244292, “Imidazo[4,5-f]quinolines. 2. A series of 9-(substituted amino)imidazo[4,5-f]quinolines as antitapeworm agents” (1977).

Activity calls are given as the source filed them. The rule behind the calls is not given here.

Experiment [1] deals with Rodentolepis nana. Description: Anthelmintic activity against Hymenolepis nana infected in mouse assessed as reduction in worm burden at 100 mg/kg administered bid for 3 days relative to control. It is filed as functional. Further details: scale not given: the % may be the effect or the level left.
The subject of experiment [2] is Rodentolepis nana. Description: Anthelmintic activity against Hymenolepis nana infected in mouse assessed as reduction in worm burden at 50 mg/kg administered bid for 3 days relative to control. The experiment is classed as functional. Further details: scale not given: the % may be the effect or the level left.
Experiment [3] has as its system Rodentolepis nana. The experiment can be described thus: Anthelmintic activity against Hymenolepis nana infected in mouse assessed as reduction in worm burden at 10 mg/kg administered bid for 3 days relative to control. The experiment is classed as functional, organism-based. Also noted: dose 10 mg/kg.
The subject of experiment [4] is Rodentolepis nana. Description: Anthelmintic activity against Hymenolepis nana infected in mouse assessed as reduction in worm burden at 25 mg/kg administered bid for 3 days relative to control. It is filed as functional. Further details: scale not given: the % may be the effect or the level left.
Experiment [5] relates to Rodentolepis nana. Description: Anthelmintic activity against Hymenolepis nana infected in mouse assessed as reduction in worm burden at 300 mg/kg administered bid for 3 days relative to control. The experiment is classed as functional. Also noted: scale not given: the % may be the effect or the level left.

For the molecule `Cc1cc(Nc2ccc(OCCC(C)C)c(OCCC(C)C)c2)c2c(ccc3nc[nH]c32)n1`, the Activity was 100% in the experiment on Rodentolepis nana [1], 100% in the experiment on Rodentolepis nana [2] and 67% in the experiment with Rodentolepis nana [4]. In addition, in the experiment on Rodentolepis nana [3], the outcome was inactive.
In the case of `COc1cc(Nc2cc(C)nc3ccc4nc[nH]c4c23)c(OC)cc1Cl`, the Activity in the experiment with Rodentolepis nana [1] is on record as 100%; with Rodentolepis nana [2], 72%; in the experiment with Rodentolepis nana [4] it was 100%. In addition, in the experiment on Rodentolepis nana [3], the result was inactive.
Turning to `Cc1cc(Nc2ccc(OCC(C)C)c(OCC(C)C)c2)c2c(ccc3nc[nH]c32)n1`, the results for the Activity in the experiment with Rodentolepis nana [1], with Rodentolepis nana [2] and with Rodentolepis nana [4] were 100%, 78% and 77%, respectively. The result in the experiment with Rodentolepis nana [3] was inactive.
The corresponding values for `CCCCCCOc1ccc(C(=N)N(CCCC)CCCC)c2ccccc12` [BUNAMIDINE] are 100%, 59%, 30% and “inactive”.
Turning to `Cc1ccc(Cl)c(Nc2cc(C)nc3ccc4nc[nH]c4c23)c1`, the result with Rodentolepis nana [1] was inactive. In the experiment on Rodentolepis nana [5], the Activity was 98%.
The matching figures for `Cc1cc(Nc2ccc(C)c([N+](=O)[O-])c2)c2c(ccc3nc[nH]c32)n1`: “inactive” and 83%.
The matching figures for `Cc1cc(Nc2cccc(C(F)(F)F)c2)c2c(ccc3nc[nH]c32)n1`: “inactive” and 100%.
The matching figures for `CCCCc1ccc(Nc2cc(C)nc3ccc4[nH]cnc4c23)cc1`: “inactive” and 100%.
For the molecule `Cc1cc(Nc2ccc(N3CCN(C)CC3)cc2)c2c(ccc3nc[nH]c32)n1`, in the experiment on Rodentolepis nana [1], the outcome was inactive. In the experiment on Rodentolepis nana [5], the Activity was 80%.
Turning to `Cc1cc(Nc2cccc(Nc3ccc(N4CCCCC4)nc3)c2)c2c(ccc3nc[nH]c32)n1`, the result in the experiment with Rodentolepis nana [1] was inactive. In addition, the Activity in the experiment on Rodentolepis nana [5] was 100%.
For the molecule `CCCCOc1cc(Nc2cc(C)nc3ccc4nc[nH]c4c23)c(OCCCC)cc1Cl`, the values for the Activity in the experiment on Rodentolepis nana [1], in the experiment with Rodentolepis nana [2] and in the experiment with Rodentolepis nana [4] were 100%, 84% and 74%, respectively. Moreover, the outcome in the experiment with Rodentolepis nana [3] was inactive.
On to `COc1ccc(Nc2cc(C)nc3ccc4nc(C)[nH]c4c23)cc1`, for which the result with Rodentolepis nana [1] was inactive. Moreover, in the experiment on Rodentolepis nana [5], the Activity is listed as 100%.
With `CCCCOc1ccc(Nc2cc(C)nc3ccc4[nH]cnc4c23)cc1`, the result with Rodentolepis nana [1] was inactive. The Activity in the experiment on Rodentolepis nana [5] worked out at 100%.
Regarding `CCCC(=O)c1ccc(Nc2cc(C)nc3ccc4nc[nH]c4c23)cc1`, in the experiment with Rodentolepis nana [1], the result was inactive. In addition, the Activity with Rodentolepis nana [5] came to 100%.
With `Cc1cc(Nc2ccccc2-c2ccccc2)c2c(ccc3nc[nH]c32)n1`, the result in the experiment with Rodentolepis nana [1] was inactive. Also, in the experiment on Rodentolepis nana [5], the Activity was 100%.
Turning to `Cc1ccc(Nc2cc(C)nc3ccc4nc[nH]c4c23)cc1`, the result in the experiment on Rodentolepis nana [1] was inactive. The Activity with Rodentolepis nana [5] came out at 100%.
The corresponding values for `COc1ccc(CNc2cccc(Nc3cc(C)nc4ccc5nc[nH]c5c34)c2)cc1` are “inactive” and 60%.
As for `CC(=O)c1ccc(Nc2cc(C)nc3ccc4nc[nH]c4c23)cc1`, the Activity in the experiment on Rodentolepis nana [1] came to 100%; in the experiment on Rodentolepis nana [2], 100%; with Rodentolepis nana [4], 56%. In addition, the result with Rodentolepis nana [3] was inactive.
As for `CCCC(C)Oc1ccc(Nc2cc(C)nc3ccc4nc[nH]c4c23)cc1OC(C)CCC` (stereo not given), the values for the Activity in the experiment on Rodentolepis nana [1], in the experiment on Rodentolepis nana [2] and in the experiment on Rodentolepis nana [4] were 100%, 100% and 92%, respectively. For the same molecule, the outcome with Rodentolepis nana [3] was inactive.
As to `Cc1cc(Nc2ccc(N3CCN(Cc4ccccc4)CC3)c(Cl)c2)c2c(ccc3nc[nH]c32)n1`, the Activity was found to be 100% in the experiment on Rodentolepis nana [1], 100% in the experiment on Rodentolepis nana [2] and 77% in the experiment with Rodentolepis nana [4]. Also, the outcome with Rodentolepis nana [3] was inactive.
In the case of `Cc1cc(Nc2cccc(Nc3ccccc3)c2)c2c(ccc3nc[nH]c32)n1`, the result in the experiment on Rodentolepis nana [1] was inactive. Moreover, the Activity with Rodentolepis nana [5] came out at 81%.
For `Cc1cc(Nc2ccc3c(c2)OCO3)c2c(ccc3nc[nH]c32)n1`, the result in the experiment with Rodentolepis nana [1] was inactive. Further, in the experiment with Rodentolepis nana [5], the Activity stood at 100%.
